Source: BindingDB's records for doi:10.1016/j.ejmech.2023.115101 (n/a, 2023)

Molecular target: Paired box protein Pax-2 (Homo sapiens, UniProt Q02962)
Assay: Inhibition of pax2 (unknown origin) in human SK-OV-3 cells measured after 24 hrs by immunoblotting analysis

Sequence of Paired box protein Pax-2 (Q02962 whole entry): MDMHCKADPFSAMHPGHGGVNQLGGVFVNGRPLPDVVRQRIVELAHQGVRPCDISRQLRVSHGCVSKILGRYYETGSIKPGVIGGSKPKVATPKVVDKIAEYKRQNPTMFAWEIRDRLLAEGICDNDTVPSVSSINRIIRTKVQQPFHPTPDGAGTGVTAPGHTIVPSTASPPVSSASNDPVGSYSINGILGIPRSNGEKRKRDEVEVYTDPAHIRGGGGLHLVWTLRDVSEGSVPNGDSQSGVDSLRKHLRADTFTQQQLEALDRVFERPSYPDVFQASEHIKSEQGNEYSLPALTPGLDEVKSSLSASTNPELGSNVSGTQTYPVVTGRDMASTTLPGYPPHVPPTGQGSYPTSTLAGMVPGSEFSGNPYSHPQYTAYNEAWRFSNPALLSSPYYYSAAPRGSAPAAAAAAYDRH

IC50: 1500 nM
SMILES: Cc1ccc(C)c(N2CCN(c3c(C)c(C)nc4ncnn34)CC2)c1
